What all share (format): biochemical
One assay deals with T1, human recombinant ADAM8 (Homo sapiens, UniProt P78325).
T1 construct: kind gift of Franka Scharfenberg, University of Kiel
T1 sequence (P78325 17-824): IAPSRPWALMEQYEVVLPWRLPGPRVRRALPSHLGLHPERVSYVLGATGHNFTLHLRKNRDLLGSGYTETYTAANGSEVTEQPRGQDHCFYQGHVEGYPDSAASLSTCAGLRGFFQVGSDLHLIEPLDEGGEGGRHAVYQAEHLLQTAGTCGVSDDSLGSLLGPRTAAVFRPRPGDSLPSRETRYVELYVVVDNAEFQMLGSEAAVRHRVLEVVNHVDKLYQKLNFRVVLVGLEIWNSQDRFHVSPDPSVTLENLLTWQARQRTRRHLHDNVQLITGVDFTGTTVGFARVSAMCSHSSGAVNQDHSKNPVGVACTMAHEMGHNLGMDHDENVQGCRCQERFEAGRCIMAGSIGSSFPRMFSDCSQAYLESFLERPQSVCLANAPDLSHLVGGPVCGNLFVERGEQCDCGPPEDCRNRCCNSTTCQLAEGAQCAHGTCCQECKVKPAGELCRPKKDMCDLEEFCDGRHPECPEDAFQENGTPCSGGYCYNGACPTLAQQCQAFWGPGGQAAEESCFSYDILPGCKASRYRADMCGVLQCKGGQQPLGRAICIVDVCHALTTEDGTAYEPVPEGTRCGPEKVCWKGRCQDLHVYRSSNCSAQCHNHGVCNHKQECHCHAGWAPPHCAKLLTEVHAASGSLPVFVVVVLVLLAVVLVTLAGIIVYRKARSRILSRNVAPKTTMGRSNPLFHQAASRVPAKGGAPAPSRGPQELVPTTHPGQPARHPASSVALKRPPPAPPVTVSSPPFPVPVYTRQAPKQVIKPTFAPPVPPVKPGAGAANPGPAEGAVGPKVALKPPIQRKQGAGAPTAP
Put plainly: ADAM8 fluorometric inhibition assay. The conditions noted are these: for IC50: human recombinant enzyme, fluorometric assay, mean of three independent experiments in duplicate, read-out: In vitro inhibitory activity IC50 on ADAM8. The procedure: (§1) The newly synthesized bivalent derivatives 1–3 were then tested in vitro on human recombinant ADAM8 in comparison with JG26 by a fluorometric assay. The inhibitory activity against a panel of MMPs and ADAM10/17 was determined as well to assess their selectivity profile.
(§2) (RFU). Percent of inhibition was calculated from control reactions without the inhibitor. IC50 was determined using the formula: v i/v o = 1/(1 + [I]/ IC50), where v i is the initial velocity of substrate cleavage in the presence of the inhibitor at concentration [I] and v o is the initial velocity in the absence of the inhibitor. Results were analyzed using SoftMax Pro software (version 5.4.3, Molecular Devices, Sunnyvale, CA) and Prism Software version 5.0 (GraphPad Software, Inc., La Jolla, CA, USA).
(§3) ADAM8 and ADAM17 inhibition assays
(§4) Recombinant ADAM8 and ADAM17 (kind gift of Franka Scharfenberg, University of Kiel) were diluted in assay buffer (25 mM Tris HCl, pH 8.0. 6x10-4 % Brij, 10 mM CaCl2, 10 mM ZnCl2) to a working concentration of 250 ng and incubated with inhibitors for 45 min in a total volume of 50 µL.
(§5) The fluorescent substrate PepDAB1310 was added in a concentration of 10 µM (in a volume of 50 µL). […]

Another assay addresses T2, ADAM17 (Homo sapiens, UniProt P78536).
T2 construct: kind gift of Franka Scharfenberg, University of Kiel
Briefly: ADAM17 fluorometric inhibition assay. The conditions noted are these: recombinant enzyme, mean of three independent experiments in duplicate, read-out: In vitro inhibitory activity IC50 on ADAM17. The procedure:
as §1, §2, §3, §4, §5

Assay [1] concerns the target T3, Recombinant human MMP-14 catalytic domain (Homo sapiens, UniProt P50281).
T3 construct: Recombinant human MMP-14 catalytic domain was a kind gift of Prof; Gillian Murphy; kind gift of Prof; Gillian Murphy (Department of Oncology, University of Cambridge, UK)
Put plainly: MMP-14 fluorometric inhibition assay. The conditions noted are these: mean of three independent experiments in duplicate, read-out: In vitro inhibitory activity IC50 on MMP-14. The procedure:
The newly synthesized bivalent derivatives 1–3 were then tested in vitro on human recombinant ADAM8 in comparison with JG26 by a fluorometric assay. The inhibitory activity against a panel of MMPs and ADAM10/17 was determined as well to assess their selectivity profile. […]
VI. Biological Activity on Isolated Enzymes
MMP and ADAM10 inhibition assays.
Recombinant human MMP-14 catalytic domain was a kind gift of Prof. Gillian Murphy (Department of […]
Oncology, University of Cambridge, UK). Pro-MMP-1, pro-MMP-2, and pro-MMP-9, were purchased […]
from Calbiochem (Merck-Millipore). Pro-MMP-12 and ADAM10 were purchased from R&D Systems.
Proenzymes were activated immediately prior to use with p-aminophenylmercuric acetate (APMA 2 […]
mM for 1 h at 37°C for MMP-2 and MMP-1, 1 mM for 1 h at 37°C for MMP-9). Pro-MMP-12 was […]
auto activated by incubating in the fluorometric assay buffer (FAB: Tris 50 mM, pH = 7.5, NaCl 150 […]
mM, CaCl2 10 mM, Brij 35 0.05% and DMSO 1%) for 30 h at 37°C. For assay measurements, each […]
inhibitor stock solution (DMSO, 10 mM) was further diluted in FAB at seven different concentrations.
Activated enzyme (final concentration 0.56 nM for MMP-2, 1.3 nM for MMP-9, 1.0 nM for MMP- […]
14cd, 2.0 nM for MMP-1, 2.3 nM for MMP-12 and 20 nM for ADAM10) and inhibitor solutions were […]
incubated in the assay buffer for 3 h at 25 °C. ADAM10 was incubated for 1 h at 37°C in a different […]
buffer at pH 9 (Tris 25 mM, ZnCl2 25 µM, Brij-35 0.005 %). After the addition of 200 µM solution of […]
the fluorogenic substrate Mca-Lys-Pro-Leu-Gly-Leu-Dap(Dnp)-Ala-Arg-NH2 (Bachem) for all the […]
enzymes in DMSO (final concentration 2 µM for all enzymes, 10 µM for ADAM10), the hydrolysis […]
was monitored every 10 sec. for 15 min. recording the increase in fluorescence (λ ex = 325 nm, λ em = […]
400 nm) using a Molecular Devices SpectraMax Gemini XPS plate reader. The assays were performed […]
in triplicate in a total volume of 200 μL per well in 96-well microtitre plates (Corning, black, NBS).
Control wells lack inhibitor. The MMP inhibition activity was expressed in relative fluorescent units […]
(RFU). Percent of inhibition was calculated from control reactions without the inhibitor. IC50 was determined using the formula: v i/v o = 1/(1 + [I]/ IC50), where v i is the initial velocity of substrate cleavage in the presence of the inhibitor at concentration [I] and v o is the initial velocity in the absence of the inhibitor. Results were analyzed using SoftMax Pro software (version 5.4.3, Molecular Devices, Sunnyvale, CA) and Prism Software version 5.0 (GraphPad Software, Inc., La Jolla, CA, USA). […]

Molecules are shown by their SMILES.

T2 sequence (P78536 215-824, species assumed): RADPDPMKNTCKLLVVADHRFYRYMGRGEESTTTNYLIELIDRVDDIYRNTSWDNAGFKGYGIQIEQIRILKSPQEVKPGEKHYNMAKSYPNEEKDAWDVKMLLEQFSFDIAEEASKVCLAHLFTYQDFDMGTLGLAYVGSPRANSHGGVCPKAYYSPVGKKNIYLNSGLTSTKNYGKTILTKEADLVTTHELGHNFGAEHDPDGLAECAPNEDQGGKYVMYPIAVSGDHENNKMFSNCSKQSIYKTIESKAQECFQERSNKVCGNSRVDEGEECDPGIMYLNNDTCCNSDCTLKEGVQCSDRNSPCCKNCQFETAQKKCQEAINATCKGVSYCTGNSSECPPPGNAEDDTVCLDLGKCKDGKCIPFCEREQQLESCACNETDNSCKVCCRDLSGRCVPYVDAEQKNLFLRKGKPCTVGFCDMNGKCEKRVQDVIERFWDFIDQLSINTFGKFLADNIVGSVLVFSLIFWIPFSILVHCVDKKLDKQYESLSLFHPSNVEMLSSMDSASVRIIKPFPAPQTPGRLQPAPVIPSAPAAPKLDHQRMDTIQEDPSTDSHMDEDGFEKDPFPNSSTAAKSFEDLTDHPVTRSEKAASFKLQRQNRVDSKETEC

Turning to `O=C(CCCNC(=O)c1cccc(C(=O)NCCCC(=O)NCCC[C@@H](NS(=O)(=O)c2ccc(OCc3cc(Br)cc(Br)c3)cc2)C(=O)NO)c1)NCCC[C@@H](NS(=O)(=O)c1ccc(OCc2cc(Br)cc(Br)c2)cc1)C(=O)NO` [Compound 1], the IC50 (usually the concentration needed to halve the response being measured) at human recombinant ADAM8 turned out to be 41 nM; on ADAM17, 52 nM; in assay [1] it was 57000 nM. For the same molecule, the “Selectivity for ADAM8 over ADAM10” value at human recombinant ADAM8 (ratio of IC50 values ADAM10/ADAM8) was 740 fold.

Regarding `O=C(NCCC[C@@H](NS(=O)(=O)c1ccc(OCc2cc(Br)cc(Br)c2)cc1)C(=O)NO)c1cccc(C(=O)NCCC[C@@H](NS(=O)(=O)c2ccc(OCc3cc(Br)cc(Br)c3)cc2)C(=O)NO)c1` [Compound 2], the IC50 was 73 nM at human recombinant ADAM8, 24 nM at ADAM17 and 50000 nM in assay [1].

Turning to `O=C(NCCC[C@@H](NS(=O)(=O)c1ccc(OCc2cc(Br)cc(Br)c2)cc1)C(=O)NO)NCCC[C@@H](NS(=O)(=O)c1ccc(OCc2cc(Br)cc(Br)c2)cc1)C(=O)NO` [Compound 3], the IC50 at human recombinant ADAM8 is 567 nM; at ADAM17, 55 nM; in assay [1] it was 234000 nM. At human recombinant ADAM8 (ratio of ADAM8 IC50 values), the “Times less active than compound 1 on ADAM8” value came out at 14 times.

With `NC(=O)NCCC[C@@H](NS(=O)(=O)c1ccc(OCc2cc(Br)cc(Br)c2)cc1)C(=O)NO` [JG26, reference compound], the results for the IC50 (at human recombinant ADAM8; at ADAM17; in assay [1]) were 12 nM, 1.9 nM and 19500 nM, respectively.

The values are drawn from publication PMC8805605, “Discovery of Dimeric Arylsulfonamides as Potent ADAM8 Inhibitors” (ACS Medicinal Chemistry Letters, 2021).
